Reference: ChEMBL document CHEMBL5120826, “Effects of β-lapachone and β-nor-lapachone on multidrug efflux transporters and biofilms of Candida glabrata” (Bioorg Med Chem, 2022)
≈ marks a conversion by molar mass, not a printed value. Calls of active or inactive are those of the source. The rule behind the calls is not given here.

Assays:
Saccharomyces cerevisiae [1] = assay: Antifungal activity against fluconazole resistant Saccharomyces cerevisiae overexpressing CgCdr1p transporter assessed as reduction in fungal growth incubated for 48 hrs in presence of fluconazole by serial dilution method; type: functional, organism-based
Nakaseomyces glabratus [2] = assay: Induction of morphological changes in fluconazole resistant Candida glabrata 109 overexpressing CgCdr1p transporter assessed as decrease in cellular density at 200 ug/ml by calcofluor white dye based confocal laser scanning microscopy; type: functional, organism-based; details: dose 200.0 µg/ml
Nakaseomyces glabratus [3] = assay: Additive antifungal activity against fluconazole resistant Candida glabrata 109 overexpressing CgCdr1p transporter assessed as fractional inhibitory concentration incubated for 48 hrs in presence of lapachone by checkboard assay based microplate reader analysis; type: functional
Nakaseomyces glabratus [4] = assay: Indifferent antifungal activity against fluconazole sensitive Candida glabrata ATCC 2001 assessed as fractional inhibitory concentration index incubated for 48 hrs by checkboard assay based microplate reader analysis; type: functional
Nakaseomyces glabratus [5] = assay: Antibiofilm activity against fluconazole resistant Candida glabrata 109 overexpressing CgCdr1p transporter assessed as reduction in metabolic activity at highest concentration incubated for 48 hrs; type: functional; parameters: scale not given: the % may be the effect or the level left
Nakaseomyces glabratus [6] = assay: Induction of ROS generation in fluconazole resistant Candida glabrata 109 overexpressing CgCdr1p transporter assessed as fold increase in ROS production at 200 ug/ml incubated for 48 hrs by DCFH-DA dye based fluorescence assay; type: functional
Saccharomyces cerevisiae [7] = assay: Induction of ROS generation in fluconazole resistant Saccharomyces cerevisiae overexpressing CgCdr2p transporter assessed as fold increase in ROS level incubated for 90 mins by DCFH-DA dye based fluorescence assay; type: functional; details: 1.5 h
Saccharomyces cerevisiae [8] = assay: Effect on efflux pump function in fluconazole resistant Saccharomyces cerevisiae overexpressing CgCdr2p transporter assessed as accumulation of Nile red fluorescence incubated for 1 hr by fluorescence based assay; type: functional
Nakaseomyces glabratus [9] = assay: Induction of morphological changes in fluconazole resistant Candida glabrata 109 overexpressing CgCdr1p transporter assessed as decrease in number of cells within biofilm at 200 ug/ml incubated for 48 hrs by SEM analysis; type: functional, organism-based; details: dose 200.0 µg/ml
Nakaseomyces glabratus [10] = assay: Antibiofilm activity against fluconazole resistant Candida glabrata 109 overexpressing CgCdr1p transporter assessed as inhibition of biofilm formation at 200 ug/ml incubated for 48 hrs; type: functional
Nakaseomyces glabratus [11] = assay: Antibiofilm activity against fluconazole sensitive Candida glabrata ATCC 2001 assessed as reduction in metabolic activity up to 200 ug/ml incubated for 48 hrs; type: functional; parameters: scale not given: the % may be the effect or the level left; details: dose <= 200 µg/ml, up to 200 µg/mL
Nakaseomyces glabratus [12] = assay: Antibiofilm activity against fluconazole sensitive Candida glabrata ATCC 2001 assessed as inhibition of biofilm formation at 200 ug/ml incubated for 48 hrs; type: functional
Nakaseomyces glabratus [13] = assay: Indifferent antifungal activity against fluconazole sensitive Candida glabrata ATCC 2001 assessed as reduction in fungal growth incubated for 48 hrs in presence of fluconazole by checkboard assay based microplate reader analysis; type: functional
Nakaseomyces glabratus [14] = assay: Indifferent antifungal activity against fluconazole resistant Candida glabrata 109 overexpressing CgCdr1p transporter assessed as reduction in fungal growth incubated for 48 hrs in presence of lapachone by checkboard assay based microplate reader analysis; type: functional
Nakaseomyces glabratus [15] = assay: Additive antifungal activity against fluconazole resistant Candida glabrata 109 overexpressing CgCdr1p transporter assessed as fractional inhibitory concentration index incubated for 48 hrs by checkboard assay based microplate reader analysis; type: functional
Nakaseomyces glabratus [16] = assay: Additive antifungal activity against fluconazole resistant Candida glabrata 109 overexpressing CgCdr1p transporter assessed as reduction in fungal growth incubated for 48 hrs in presence of fluconazole by checkboard assay based microplate reader analysis; type: functional
Saccharomyces cerevisiae [17] = assay: Effect on efflux pump function in fluconazole resistant Saccharomyces cerevisiae overexpressing CgCdr1p transporter assessed as accumulation of Nile red fluorescence incubated for 1 hr by fluorescence based assay; type: functional
[18] = Inhibition of fluconazole sensitive Candida glabrata ATCC 2001 […] cell adhesion to polystyrene at 200 ug/ml incubated for 90 mins by MTT assay; type: functional; details: Nakaseomyces glabratus, ATCC 2001, 1.5 h
Saccharomyces cerevisiae [19] = assay: Synergistic antifungal activity against fluconazole resistant Saccharomyces cerevisiae overexpressing CgCdr2p transporter assessed as fractional inhibitory concentration index incubated for 48 hrs by checkboard assay based microplate reader analysis; type: functional
Nakaseomyces glabratus [20] = assay: Indifferent antifungal activity against fluconazole resistant Candida glabrata 109 overexpressing CgCdr1p transporter assessed as reduction in fungal growth incubated for 48 hrs by checkboard assay based microplate reader analysis; type: functional
Nakaseomyces glabratus [21] = assay: Indifferent antifungal activity against fluconazole resistant Candida glabrata 109 overexpressing CgCdr1p transporter assessed as fractional inhibitory concentration index incubated for 48 hrs by checkboard assay based microplate reader analysis; type: functional
Nakaseomyces glabratus [22] = assay: Additive antifungal activity against fluconazole resistant Candida glabrata 109 overexpressing CgCdr1p transporter assessed as fractional inhibitory concentration incubated for 48 hrs in presence of fluconazole by checkboard assay based microplate reader analysis; type: functional
Nakaseomyces glabratus [23] = assay: Antifungal activity against fluconazole sensitive Candida glabrata ATCC 2001 assessed as reduction in fungal growth incubated for 48 hrs by checkboard assay based microplate reader analysis; type: functional
Nakaseomyces glabratus [24] = assay: Indifferent antifungal activity against fluconazole resistant Candida glabrata 109 overexpressing CgCdr1p transporter assessed as reduction in fungal growth incubated for 48 hrs in presence of fluconazole by checkboard assay based microplate reader analysis; type: functional
Saccharomyces cerevisiae [25] = assay: Antifungal activity against fluconazole resistant Saccharomyces cerevisiae overexpressing CgCdr2p transporter assessed as reduction in fungal growth incubated for 48 hrs by checkboard assay based microplate reader analysis; type: functional
Nakaseomyces glabratus [26] = assay: Indifferent antifungal activity against fluconazole sensitive Candida glabrata ATCC 2001 assessed as fractional inhibitory concentration incubated for 48 hrs in presence of lapachone by checkboard assay based microplate reader analysis; type: functional
Saccharomyces cerevisiae [27] = assay: Antifungal activity against fluconazole resistant Saccharomyces cerevisiae overexpressing CgCdr2p transporter assessed as reduction in fungal growth incubated for 48 hrs in presence of fluconazole by serial dilution method; type: functional, organism-based
Nakaseomyces glabratus [28] = assay: Antifungal activity against fluconazole resistant Candida glabrata 109 overexpressing CgCdr1p transporter assessed as reduction in fungal growth incubated for 48 hrs by checkboard assay based microplate reader analysis; type: functional
Nakaseomyces glabratus [29] = assay: Effect on efflux pump function in fluconazole resistant Candida glabrata 109 overexpressing CgCdr1p transporter assessed as accumulation of Nile red fluorescence incubated for 1 hr by fluorescence based assay; type: functional
Nakaseomyces glabratus [30] = assay: Induction of ROS generation in fluconazole resistant Candida glabrata 109 overexpressing CgCdr1p assessed as fold increase in ROS level incubated for 90 mins by DCFH-DA dye based fluorescence assay; type: functional; details: 1.5 h
Saccharomyces cerevisiae [31] = assay: Induction of ROS generation in fluconazole resistant Saccharomyces cerevisiae overexpressing CgCdr1p transporter assessed as fold increase in ROS level incubated for 90 mins by DCFH-DA dye based fluorescence assay; type: functional; details: 1.5 h
Nakaseomyces glabratus [32] = assay: Induction of morphological changes in fluconazole resistant Candida glabrata 109 overexpressing CgCdr1p transporter assessed as decrease in cell-cell adhesion at 200 ug/ml by calcofluor white dye based confocal laser scanning microscopy; type: functional, organism-based; details: dose 200.0 µg/ml
Nakaseomyces glabratus [33] = assay: Antifungal activity against fluconazole resistant Candida glabrata 109 overexpressing CgCdr1p transporter assessed as reduction in fungal growth incubated for 48 hrs in presence of fluconazole by serial dilution method; type: functional, organism-based
Nakaseomyces glabratus [34] = assay: Indifferent antifungal activity against fluconazole sensitive Candida glabrata ATCC 2001 assessed as reduction in fungal growth incubated for 48 hrs in presence of lapachone by checkboard assay based microplate reader analysis; type: functional

## CC1(C)CCC2=C(O1)c1ccccc1C(=O)C2=O [LAPACHONE]
Saccharomyces cerevisiae [1]
  Activity: Active
Nakaseomyces glabratus [2]
  Activity: Active
Nakaseomyces glabratus [3]
  FIC: 0.5 µg/mL
Nakaseomyces glabratus [4]
  fractional inhibitory concentration index (FICI): 2
Nakaseomyces glabratus [5]
  Activity: 88%
Nakaseomyces glabratus [6]; dose 200 µg/ml
  fold change (FC): 16
Saccharomyces cerevisiae [7]
  fold change (FC): 3
Saccharomyces cerevisiae [8]
  Activity: 50%
Nakaseomyces glabratus [9]
  Activity: Active
Nakaseomyces glabratus [10]
  inhibition at 200 µg/mL: 72%
Nakaseomyces glabratus [11]
  Activity: 93%
Nakaseomyces glabratus [12]
  inhibition at 200 µg/mL: 95%
Nakaseomyces glabratus [13]
  MIC: 15.6 mg/L
Nakaseomyces glabratus [14]
  MIC: > 200 mg/L
Nakaseomyces glabratus [15]
  fractional inhibitory concentration index (FICI): 0.625
Nakaseomyces glabratus [16]
  MIC: 31.2 mg/L
Saccharomyces cerevisiae [17]
  Activity: 100%
[18]
  inhibition at 200 µg/mL: 55%
Saccharomyces cerevisiae [19]
  fractional inhibitory concentration index (FICI): 0.31
Nakaseomyces glabratus [20]
  MIC: > 200 mg/L
Nakaseomyces glabratus [21]
  fractional inhibitory concentration index (FICI): 2
Nakaseomyces glabratus [22]
  FIC: 0.125 µg/mL
Nakaseomyces glabratus [23]
  MIC: 12.5 mg/L (≈ 51.6 µM)
Nakaseomyces glabratus [24]
  MIC: > 1000 mg/L
Saccharomyces cerevisiae [25]
  MIC: 25 mg/L (≈ 103 µM)
Nakaseomyces glabratus [26]
  FIC: 1 µg/mL
Saccharomyces cerevisiae [27]
  Activity: Active
Nakaseomyces glabratus [28]
  MIC: 25 mg/L (≈ 103 µM)
Nakaseomyces glabratus [29]
  Activity: 35%
Nakaseomyces glabratus [30]
  fold change (FC): 5
Saccharomyces cerevisiae [31]
  fold change (FC): 3
Nakaseomyces glabratus [32]
  Activity: Active
Nakaseomyces glabratus [33]
  Activity: Active
Nakaseomyces glabratus [34]
  MIC: 12.5 mg/L

## CC1(C)CC2=C(O1)c1ccccc1C(=O)C2=O [NOR-BETA-LAPACHONE]
Saccharomyces cerevisiae [1]
  Activity: Active
Nakaseomyces glabratus [2]
  Activity: Active
Nakaseomyces glabratus [3]
  FIC: 0.5 µg/mL
Nakaseomyces glabratus [4]
  fractional inhibitory concentration index (FICI): 2
Nakaseomyces glabratus [5]
  Activity: 46%
Nakaseomyces glabratus [6]; dose 200.0 µg/ml
  Activity: Active
Saccharomyces cerevisiae [7]
  fold change (FC): 3
Saccharomyces cerevisiae [8]
  Activity: 50%
Nakaseomyces glabratus [9]
  Activity: Active
Nakaseomyces glabratus [10]
  inhibition at 200 µg/mL: 48%
Nakaseomyces glabratus [11]
  Activity: 81%
Nakaseomyces glabratus [12]
  inhibition at 200 µg/mL: 70%
Nakaseomyces glabratus [13]
  MIC: 15.6 mg/L
Nakaseomyces glabratus [14]
  MIC: > 200 mg/L
Nakaseomyces glabratus [15]
  fractional inhibitory concentration index (FICI): 0.625
Nakaseomyces glabratus [16]
  MIC: 31.2 mg/L
Saccharomyces cerevisiae [17]
  Activity: 100%
[18]
  inhibition at 200 µg/mL: 28%
Saccharomyces cerevisiae [19]
  fractional inhibitory concentration index (FICI): 0.37
Nakaseomyces glabratus [20]
  MIC: > 200 mg/L
Nakaseomyces glabratus [21]
  fractional inhibitory concentration index (FICI): 2
Nakaseomyces glabratus [22]
  FIC: 0.125 µg/mL
Nakaseomyces glabratus [23]
  MIC: 15.6 mg/L (≈ 68.3 µM)
Nakaseomyces glabratus [24]
  MIC: > 1000 mg/L
Saccharomyces cerevisiae [25]
  MIC: 25 mg/L (≈ 110 µM)
Nakaseomyces glabratus [26]
  FIC: 1 µg/mL
Saccharomyces cerevisiae [27]
  Activity: Active
Nakaseomyces glabratus [28]
  MIC: 100 mg/L (≈ 438 µM)
Nakaseomyces glabratus [29]
  Activity: 100%
Nakaseomyces glabratus [30]
  fold change (FC): 5
Saccharomyces cerevisiae [31]
  fold change (FC): 3
Nakaseomyces glabratus [32]
  Activity: Active
Nakaseomyces glabratus [33]
  Activity: Active
Nakaseomyces glabratus [34]
  MIC: 100 mg/L
